Reference: paper PMC7904550, “Application of grouping and read-across for the evaluation of parabens of different chain lengths with a particular focus on endocrine properties” (Archives of Toxicology, 2021)

How the values were obtained:
[1] = Octanol–water partition coefficient (Log Kow); assay type: physicochemical; settings: mean; OECD TG 107 and OECD TG 117
From the text: Generally, these parabens have very similar physico-chemical properties.

[2] = in vivo; settings: for concentration at 1 h / Tmax / AUC(0-t) / Cmax: Wistar, rat, serum; for concentration at 1 h: oral; for Tmax / AUC(0-t) / Cmax: po; for AUC(0-t) / Cmax / AUC0-1 h/AUC0–t / C1h/Cmax / Clast / tlast: parent compound
Experimental: These studies were conducted similarly to OECD TG 417 applying 500 and 1000 mg/kg body weight (bw) test item via oral gavage to 10 males and 10 females per dose group. Focus of the toxicokinetic evaluation was on the measurement of the serum concentrations of the parent compounds and their (common) major metabolite p-hydroxybenzoic acid by […] in order to assess the systemic uptake and elimination of the parent compounds and this major metabolite [see also ECHA ([2017a])]. The limit of quantification was determined as 10 ng/mL for all parabens, and as 130 ng/mL for p-hydroxybenzoic acid. […] On account of these major aims, investigations of the faeces and urine were not included in the toxicokinetics screening studies.

[3] = Grouping and read-across of NOAEL (ECHA RAAF Scenario 5; analogue approach)
From the text: The strength of evidence for the respective AEs was scored by the assessment options indicated in the RAAF ranging from Score 5 (acceptable with high confidence) to Score 1 (not acceptable) (ECHA [2017b]).

[4] = test system: rats; settings: acute oral, rats, OECD 401; ref ECHA dissemination portal; cited from earlier work
[5] = test system: rats; settings: rat, in vivo; cited from earlier work
[6] = test system: rats; settings: rat, in vivo; cited from earlier work; remark: listed apart in the source
[7] = test system: rats; settings: rat, in vivo; cited from earlier work; remark: listed apart in the source
[8] = test system: bacteria; settings: OECD 471; ref ECHA dissemination portal; cited from earlier work
[9] = test system: rats; settings: read-across from MP; ref ECHA dissemination portal; cited from earlier work
[10] = test system: SD-JCL rats; settings: feeding study, ref Sado 1973, Liebert 1984; cited from earlier work
[11] = test system: rats; settings: ref EFSA 2004; cited from earlier work
[12] = read-across by interpolation from methyl paraben and propyl paraben

Which “Log Kow” value [1] does the source give for `CCOC(=O)c1ccc(O)cc1` [Ethyl paraben, Ethyl 4-hydroxybenzoate] here?
Its value is 2.3 (mean; OECD TG 107 and OECD TG 117).

What about the concentration at 1 h ([2]; female, 500 mg/kg) of the same compound?
Its concentration at 1 h is 116 ng/mL.

And the concentration at 1 h ([2]; female, 1000 mg/kg)?
The concentration at 1 h was 305 ng/mL.

And the Tmax ([2]; female, 500 mg/kg)?
Its Tmax is 4.8 min.

What about the AUC(0-t) ([2]; female, 500 mg/kg, AUC0-1 h) of the same compound?
Its AUC(0-t) is 1080 ng·h/mL.

And the AUC(0-t) ([2]; female, 500 mg/kg, AUC0–t)?
The AUC(0-t) was 1540 ng·h/mL.

And the Cmax ([2]; female, 500 mg/kg)?
The Cmax was 5930 ng/mL.

And the Tmax ([2]; female, 1000 mg/kg)?
Its Tmax is 10.2 min.

What about the AUC(0-t) ([2]; female, 1000 mg/kg, AUC0-1 h) of the same compound?
The AUC(0-t) was 1660 ng·h/mL.

What about the AUC(0-t) ([2]; female, 1000 mg/kg, AUC0–t) of the same compound?
The AUC(0-t) was 3320 ng·h/mL.

And the Cmax ([2]; female, 1000 mg/kg)?
The Cmax was 5150 ng/mL.

What about the Cmax ([2]; female, 1000 mg/kg, females) of the same compound?
The Cmax was 5000 ng/mL.

What about the concentration at 1 h ([2]; male, 500 mg/kg) of the same compound?
The concentration at 1 h was 71.6 ng/mL.

And the concentration at 1 h ([2]; male, 1000 mg/kg)?
Its concentration at 1 h is 96.6 ng/mL.

And the Tmax ([2]; male, 500 mg/kg)?
The Tmax was 4.8 min.

What about the AUC(0-t) ([2]; male, 500 mg/kg, AUC0-1 h) of the same compound?
Its AUC(0-t) is 320 ng·h/mL.

And the AUC(0-t) ([2]; male, 500 mg/kg, AUC0–t)?
The AUC(0-t) was 632 ng·h/mL.

What about the Cmax ([2]; male, 500 mg/kg) of the same compound?
The Cmax was 1540 ng/mL.

What about the Tmax ([2]; male, 1000 mg/kg) of the same compound?
The Tmax was 4.8 min.

And the AUC(0-t) ([2]; male, 1000 mg/kg, AUC0-1 h)?
The AUC(0-t) was 490 ng·h/mL.

What about the AUC(0-t) ([2]; male, 1000 mg/kg, AUC0–t) of the same compound?
The AUC(0-t) was 789 ng·h/mL.

And the Cmax ([2]; male, 1000 mg/kg)?
Its Cmax is 2390 ng/mL.

And the Cmax ([2]; male, 1000 mg/kg, males)?
The Cmax was 2000 ng/mL.

What about the “AUC0-1 h/AUC0–t” value ([2]; 500 mg/kg, female) of the same compound?
Its value is 70%.

What about the C1h/Cmax ([2]; 500 mg/kg, female) of the same compound?
The C1h/Cmax was 2.0%.

What about the Clast ([2]; 500 mg/kg, female) of the same compound?
Its Clast is 23.9 ng/mL.

And the tlast ([2]; 500 mg/kg, female)?
Its tlast is 8.0 h.

What about the “AUC0-1 h/AUC0–t” value ([2]; 500 mg/kg, male) of the same compound?
The value was 51%.

And the C1h/Cmax ([2]; 500 mg/kg, male)?
Its C1h/Cmax is 4.7%.

And the Clast ([2]; 500 mg/kg, male)?
Its Clast is 70.6 ng/mL.

What about the tlast ([2]; 500 mg/kg, male) of the same compound?
Its tlast is 8.0 h.

What about the “AUC0-1 h/AUC0–t” value ([2]; 1000 mg/kg, female) of the same compound?
The value was 50%.

What about the C1h/Cmax ([2]; 1000 mg/kg, female) of the same compound?
Its C1h/Cmax is 5.9%.

What about the Clast ([2]; 1000 mg/kg, female) of the same compound?
The Clast was 168 ng/mL.

And the tlast ([2]; 1000 mg/kg, female)?
The tlast was 8.0 h.

What about the “AUC0-1 h/AUC0–t” value ([2]; 1000 mg/kg, male) of the same compound?
Its value is 62%.

And the C1h/Cmax ([2]; 1000 mg/kg, male)?
The C1h/Cmax was 4.0%.

What about the Clast ([2]; 1000 mg/kg, male) of the same compound?
The Clast was 33.3 ng/mL.

What about the tlast ([2]; 1000 mg/kg, male) of the same compound?
Its tlast is 8.0 h.

And the “NOAEL for repeated-dose toxicity and DART” value ([3]; interpolated from methyl paraben and propyl paraben)?
Its value is 1000 mg/kg bw/day.

What about the “NOAEL, EOGRTS: developmental and reproductive toxicity” value [3, 12] of the same compound?
The value was “NOAEL: 1000 (Read-across by interpolation) mg/kg body weight/day”.

What about the “NOAEL, developmental toxicity (OECD TG 414)” value [3, 12] of the same compound?
Its value is “NOAEL: 1000 (Read-across by interpolation) mg/kg body weight/day”.

What about the “NOAEL, reproductive toxicity (OECD TG 421/422)” value [3, 12] of the same compound?
The value was “NOAEL: 1000 (Read-across by interpolation) mg/kg body weight/day”.

What about the LD50 [4] of the same compound?
Its LD50 is > 3100 (OECD 401; 1982) mg/kg bw.

And the “Skin irritation/skin corrosion classification” value [5]?
Its value is “Not irritating (OECD 404; 1983)”.

And the “Eye irritation/eye corrosion classification” value [6]?
Its value is “Not irritating (OECD 405; 1983)”.

And the Skin sensitisation classification [7]?
The Skin sensitisation classification was “Not sensitising (equiv. OECD 406; 1981)”.

And the “Mutagenicity in bacteria classification” value [8]?
The value was “Not mutagenic [c] (OECD 471; 2012)”.

And the “Genetic toxicity in vivo (rats) classification” value [9]?
Its value is “Not clastogenic (read-across from MP)”.

And the “NOAEL, 25-week repeated dose toxicity” value [10]?
Its value is “NOAEL: 1200 (25-week repeated dose toxicity [a]) mg/kg body weight/day”.

And the NOAEL [11]?
Its NOAEL is 1000 mg/kg bw/day.
